# Measured values published in paper PMC6934184, “Selective DNA-PKcs inhibition extends the therapeutic index of localized radiotherapy and chemotherapy” (The Journal of Clinical Investigation, 2019).
# Biological target: T1, CDK5/p35 (Homo sapiens, UniProt Q00535)
# T1 construct: purchased Thermo Fisher Scientific (Life Technologies) SelectScreen
# Assay: SelectScreen Z'LYTE
# Format: biochemical
# In short: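 Percent values come from Thermo SelectScreen profiling of NU5455, combining activity and binding assays. CSF1R was run in Z'LYTE format at Km app ATP, and CAMK1 in Adapta format with ATP listed at 10.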
# T1 sequence (Q00535 whole entry): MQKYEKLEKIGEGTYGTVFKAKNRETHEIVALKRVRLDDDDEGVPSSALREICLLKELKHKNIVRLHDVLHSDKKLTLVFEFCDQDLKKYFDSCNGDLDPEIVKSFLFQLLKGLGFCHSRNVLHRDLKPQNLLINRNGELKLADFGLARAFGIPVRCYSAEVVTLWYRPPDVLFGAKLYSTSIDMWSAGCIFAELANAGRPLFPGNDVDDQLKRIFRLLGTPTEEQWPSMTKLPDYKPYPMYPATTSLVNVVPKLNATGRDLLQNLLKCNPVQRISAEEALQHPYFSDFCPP
# T1 sequence (Q15078 whole entry partner): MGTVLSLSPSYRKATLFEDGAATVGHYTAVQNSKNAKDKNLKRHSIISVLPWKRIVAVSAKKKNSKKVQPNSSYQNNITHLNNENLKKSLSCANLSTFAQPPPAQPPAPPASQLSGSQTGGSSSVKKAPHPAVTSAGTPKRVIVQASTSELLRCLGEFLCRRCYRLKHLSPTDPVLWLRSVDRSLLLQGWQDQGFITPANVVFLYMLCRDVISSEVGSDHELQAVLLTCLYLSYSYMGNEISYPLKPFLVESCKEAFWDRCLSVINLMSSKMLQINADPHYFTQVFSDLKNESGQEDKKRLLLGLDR
smiles,measurement,value
CN(C(=O)CN1CCOCC1)c1ccc2sc3c(-c4cccc5c(=O)cc(N6CC7CCC(C6)O7)oc45)cccc3c2c1 [NU5455],inhibition at 1 µM,-8.6%
